Laboratory results as given in patent US20260240200A1, “COMPOSITION COMPRISING AN N-GUANYLAMINO ACID FOR DRINKING WATER APPLICATION” (Evonik Operations GmbH, priority 2023, published 2026).

Columns and labels:
[1] = Determination of the dissolution time in 10 L tap water, neither stirred nor moved; type: physicochemical; conditions: not stirred or moved
Description: The mixture was neither stirred nor moved. After 3 minutes there was no solid mixture at the bottom of the beaker.
A beaker with 10 L tap water was provided and 3 g (25.3 mmol) guanidinoacetic acid (GAA, powder, purchased from Gendone, China) was added. The powder sank to the bottom of the beaker. The mixture was not stirred or moved. After 4 days, no solid material was recognizable any more at the bottom of the beaker.

[2] = 15° C.; cited from earlier work

- dissolution time (no solid material recognizable at the bottom of the beaker) [1]: ≤ 4 days
SMILES: N=C(N)NCC(=O)O [guanidinoacetic acid]
- solubility in water [2]: 1 g in 278 ml water
